Assay results taken from patent US9459250B2, “Use of T1R3 venus flytrap region polypeptide to screen for taste modulators” (SENOMYX, INC., priority 2003, dated 2016).
pEC50: −log10 of the molar value.

Tests used:
T1R1/T1R3 [1] = biological target: T1, T1R1/T1R3 (Homo sapiens (Human), UniProt Q7RTX0+Q7RTX1); test: Umami enhancement assay: MSG dose response with and without compound; type: cell-based; details: for Umami EC50 ratio: Table 5, compound concentration not given
Description: In enhancement assay experiments, a MSG dose response was run and a second MSG dose response was run with a certain amount of candidate compound at every MSG concentrations at the same time. Then, the EC50 ratio is calculated based on the following definitions: EC50 Ratio=EC50(MSG)/EC50(MSG+[Compound])
wherein “[compound]” refers to the concentration of compound used to elicit (or enhance or potentiate) the MSG dose response. Those concentrations can vary from a pM to an mM, more preferred, from a low nM to μM.
(§1) HEK-Gα15 cells were engineered to inducibly express T1R1/T1R3 using the GeneSwitch system (Invitrogen). pGene-derived zeocin-resistant expression vectors for human T1R1 and T1R3 (plasmid SXV603 for T1R1 and SXV611 for T1R3) and a puromycin-resistant pSwitch-derived vector that carries the GeneSwitch protein (plasmid SXV628) were linearized and cotransfected into the HEK-Gα15 cell line. Zeocin-resistant and puromycin-resistant colonies were selected, expanded, induced with variable amounts of mifepristone, and tested by calcium imaging for responses to umami taste stimuli. […] After replacement with 50 μl PBS, stimulation was performed at room temperature by the addition of 50 μl PBS supplemented with different stimuli. The maximal fluorescence from four independent determinations were averaged, corrected for background fluorescence measured prior to compound addition, and normalized to the response to 0.002 mM ionomycin (CALBIOCHEM).

T1R1/T1R3 [2] = biological target: T1, T1R1/T1R3; test: Umami FLIPR assay, HEK-Gα15 clone I-17 inducibly expressing T1R1/T1R3; type: cell-based; details: for pEC50: Table 1 Umami Amides
Description: A dose-dependent response curve was determined for a compound, and the compound concentration corresponding to 50% of the maximal response was derived from the curve, in one example.
Regarding umami tastants and enhancers, scores of their activities can be given as percentage of the maximum MSG intensity (%). In compound dose response, an EC50 can be calculated to reflect the potency of the compound as umami agonist.
as §1

T1 sequence (Q7RTX1 21-841): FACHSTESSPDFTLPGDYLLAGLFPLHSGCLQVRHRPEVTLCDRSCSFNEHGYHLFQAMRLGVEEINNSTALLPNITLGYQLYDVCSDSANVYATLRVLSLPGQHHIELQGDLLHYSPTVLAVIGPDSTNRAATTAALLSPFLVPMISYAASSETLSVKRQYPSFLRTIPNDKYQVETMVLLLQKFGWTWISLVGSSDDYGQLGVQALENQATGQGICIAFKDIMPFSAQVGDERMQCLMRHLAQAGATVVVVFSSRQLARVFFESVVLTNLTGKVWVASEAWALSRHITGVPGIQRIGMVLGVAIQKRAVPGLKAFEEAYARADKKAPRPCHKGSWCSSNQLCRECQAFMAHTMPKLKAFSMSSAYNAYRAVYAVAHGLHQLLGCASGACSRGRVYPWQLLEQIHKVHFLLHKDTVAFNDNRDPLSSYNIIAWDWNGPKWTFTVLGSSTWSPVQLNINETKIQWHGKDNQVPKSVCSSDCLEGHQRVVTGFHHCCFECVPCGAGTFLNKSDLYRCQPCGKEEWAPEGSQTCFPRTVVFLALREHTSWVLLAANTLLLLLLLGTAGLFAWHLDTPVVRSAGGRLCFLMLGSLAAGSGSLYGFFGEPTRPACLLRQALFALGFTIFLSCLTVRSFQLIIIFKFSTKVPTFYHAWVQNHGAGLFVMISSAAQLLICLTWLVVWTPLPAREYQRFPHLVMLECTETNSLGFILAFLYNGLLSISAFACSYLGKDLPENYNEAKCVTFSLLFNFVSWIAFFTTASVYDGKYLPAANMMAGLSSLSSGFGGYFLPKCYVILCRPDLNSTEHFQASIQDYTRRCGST
T1 sequence (Q7RTX0 21-852 C757R): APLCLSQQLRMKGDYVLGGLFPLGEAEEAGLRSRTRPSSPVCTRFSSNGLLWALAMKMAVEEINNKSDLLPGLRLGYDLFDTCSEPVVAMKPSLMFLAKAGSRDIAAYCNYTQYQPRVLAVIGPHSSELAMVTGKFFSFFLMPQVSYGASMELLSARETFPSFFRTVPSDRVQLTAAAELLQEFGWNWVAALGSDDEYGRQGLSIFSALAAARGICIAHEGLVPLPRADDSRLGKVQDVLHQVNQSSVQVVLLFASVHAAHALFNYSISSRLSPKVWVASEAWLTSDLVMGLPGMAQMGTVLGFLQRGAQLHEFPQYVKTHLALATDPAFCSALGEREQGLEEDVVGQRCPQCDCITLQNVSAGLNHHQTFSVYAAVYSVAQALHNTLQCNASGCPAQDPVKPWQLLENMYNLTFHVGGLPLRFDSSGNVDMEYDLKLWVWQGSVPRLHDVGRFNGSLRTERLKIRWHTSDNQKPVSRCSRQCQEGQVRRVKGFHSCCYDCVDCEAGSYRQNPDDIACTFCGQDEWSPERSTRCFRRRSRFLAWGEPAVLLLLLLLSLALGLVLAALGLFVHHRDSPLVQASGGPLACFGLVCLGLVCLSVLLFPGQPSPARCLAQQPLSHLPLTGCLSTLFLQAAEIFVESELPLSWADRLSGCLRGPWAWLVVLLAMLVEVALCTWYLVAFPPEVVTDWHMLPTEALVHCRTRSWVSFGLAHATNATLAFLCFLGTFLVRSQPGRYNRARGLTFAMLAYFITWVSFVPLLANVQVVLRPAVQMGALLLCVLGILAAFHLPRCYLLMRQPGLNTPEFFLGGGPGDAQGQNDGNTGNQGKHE

Structure (SMILES): COc1ccc(/C=C/C(=O)NC(C(C)C)C(C)C)cc1 [Compound D1, (E)-N-(2,4-dimethylpentan-3-yl)-3-(4-methoxyphenyl)acrylamide]
- Ec50 ratio (vs. MSG) (T1R1/T1R3 [1]; Table 4, compound @ 1 uM): 3.46

Structure (SMILES): CCCC(CCC)NC(=O)c1ccc(Br)o1 [Compound A30]
- Ec50 ratio (vs. MSG) (T1R1/T1R3 [1]; Table 1, compound @ 1 uM): 12.6

Structure (SMILES): N[C@@H](CC(=O)O)C(=O)O [L-aspartate, reference compound]
- activation of T1R1/T1R3 receptor by L-amino acids (T1R1/T1R3 [2]; clone I-17, with and without IMP): significantly activated

Structure (SMILES): C=Cc1ccc(C(=O)N[C@H]2CCCc3ccccc32)cc1 [Compound A105]
- Ec50 ratio (vs. MSG) (T1R1/T1R3 [1]; Table 1, compound @ 1 uM): 2.79

Structure (SMILES): CCC(CC)NC(=O)c1cc2cc(OC)ccc2o1 [Compound A13]
- Ec50 ratio (vs. MSG) (T1R1/T1R3 [1]; Table 1, compound @ 1 uM): 4.46

Structure (SMILES): COC(=O)[C@@H](CC(C)C)NC(=O)c1ccc2nc(C)oc2c1 [Compound A25]
- pEC50 (T1R1/T1R3 [2]): 5.83

Structure (SMILES): CCCC(CCC)NC(=O)Nc1ccccc1F [Compound C4, 1-(2-fluorophenyl)-3-(heptan-4-yl)urea]
- Ec50 ratio (vs. MSG) (T1R1/T1R3 [1]; Table 3, Con. 3 uM): 12.15

Structure (SMILES): COC(=O)C(CC(C)C)NC(=O)c1cc2cc(OC)ccc2o1 (stereo in doubt) [Compound A6]
- Ec50 ratio (vs. MSG) (T1R1/T1R3 [1]; Table 1, compound @ 1 uM): 2.86

Structure (SMILES): CCCC(CCC)NC(=O)/C=C/c1ccc(OC)cc1 [Compound D5, (E)-N-(heptan-4-yl)-3-(4-methoxyphenyl)acrylamide]
- Ec50 ratio (vs. MSG) (T1R1/T1R3 [1]; Table 4, compound @ 0.3 uM): 3.48

Structure (SMILES): CCC(COC)NC(=O)/C=C/c1ccc(OC)cc1 (centres unmarked) [Compound D14, (E)-N-(1-methoxybutan-2-yl)-3-(4-methoxyphenyl)acrylamide]
- Ec50 ratio (vs. MSG) (T1R1/T1R3 [1]; Table 4, compound @ 1 uM): 8.48

Structure (SMILES): COc1ccc(CNC(O)c2ccccc2-c2ccccc2)c(OC)c1 (centres unmarked) [Compound A104]
- pEC50 (T1R1/T1R3 [2]): 5.86

Structure (SMILES): CCCC(CCC)NC(=O)c1ccc2cc[nH]c2c1 [Compound A35]
- Ec50 ratio (vs. MSG) (T1R1/T1R3 [1]; Table 1, compound @ 1 uM): 8.81

Structure (SMILES): CCCC(CCC)NC(=O)c1ccc(OCC)cc1 [Compound A68]
- Ec50 ratio (vs. MSG) (T1R1/T1R3 [1]; Table 1, compound @ 0.3 uM): 2.62

Structure (SMILES): Cc1ccc(C(=O)NC2CCCc3ccccc32)s1 (centres unmarked) [Compound A39]
- Ec50 ratio (vs. MSG) (T1R1/T1R3 [1]; Table 1, compound @ 1 uM): 2.3

Structure (SMILES): CCCC(CCC)NC(=O)Nc1ccccc1Cl [Compound C1, 1-(2-chlorophenyl)-3-(heptan-4-yl)urea]
- Ec50 ratio (vs. MSG) (T1R1/T1R3 [1]; Table 3, Con. 1 uM): 4.95

Structure (SMILES): CC[C@@H](C)[C@@](C)(NC(=O)c1ccc2c(c1)OCO2)C(=O)OC [Compound A42]
- pEC50 (T1R1/T1R3 [2]): 6.46

Structure (SMILES): CC1CCCCC1NC(=O)c1cccc(C(F)(F)F)c1 (centres unmarked) [Compound E59, N-(2-methylcyclohexyl)-3-(trifluoromethyl)benzamide]
- Umami EC50 ratio (T1R1/T1R3 [1]): 2.07

Structure (SMILES): CCCC(CCC)NC(=O)c1ccc(C)s1 [Compound A38]
- Ec50 ratio (vs. MSG) (T1R1/T1R3 [1]; Table 1, compound @ 1 uM): 6.54

Structure (SMILES): CCCC(CCC)NC(=O)/C=C/c1cccs1 [Compound D6, N-(1-Propyl-butyl)-3-thiophen-2-yl-acrylamide]
- Ec50 ratio (vs. MSG) (T1R1/T1R3 [1]; Table 4, compound @ 1 uM): 6.3

Structure (SMILES): CC(CCc1ccccc1)NC(=O)/C=C/c1cccs1 (centres unmarked) [Compound D4, N-(1-Methyl-3-phenyl-propyl)-3-thiophen-2-yl-acrylamide]
- Ec50 ratio (vs. MSG) (T1R1/T1R3 [1]; Table 4, compound @ 1 uM): 9.73

Structure (SMILES): O=C(Nc1ccccc1Cl)NC1CCCc2ccccc21 (centres unmarked) [Compound C7, 1-(2-chlorophenyl)-3-(1,2,3,4-tetrahydronaphthalen-1-yl)urea]
- Ec50 ratio (vs. MSG) (T1R1/T1R3 [1]; Table 3, Con. 1 uM): 3.68

Structure (SMILES): COc1ccc(NC(=O)NC2CCCCC2C)c(OC)c1 (centres unmarked) [Compound C8, 1-(2,4-dimethoxyphenyl)-3-(2-methylcyclohexyl)urea]
- Ec50 ratio (vs. MSG) (T1R1/T1R3 [1]; Table 3, Con. 0.3 uM): 2.62

Structure (SMILES): O=C(Nc1ccccc1F)NC1CCCc2ccccc21 (centres unmarked) [Compound C11, 1-(2-fluorophenyl)-3-(1,2,3,4-tetrahydronaphthalen-1-yl)urea]
- Ec50 ratio (vs. MSG) (T1R1/T1R3 [1]; Table 3, Con. 1 uM): 4.49

Structure (SMILES): CCCC(CCC)NC(=O)/C=C/c1ccsc1 [Compound D15, (E)-N-(heptan-4-yl)-3-(thiophen-3-yl)acrylamide]
- Ec50 ratio (vs. MSG) (T1R1/T1R3 [1]; Table 4, compound @ 0.3 uM): 2.22

Structure (SMILES): CC(NC(=O)Nc1ccccc1Cl)C1CCCCC1 (centres unmarked) [Compound C5, 1-(2-chlorophenyl)-3-(1-cyclohexylethyl)urea]
- Ec50 ratio (vs. MSG) (T1R1/T1R3 [1]; Table 3, Con. 1 uM): 9.08

Structure (SMILES): CCCC(NC(=O)c1ccc2c(c1)OCO2)C(=O)OC (centres unmarked) [Compound A49]
- Ec50 ratio (vs. MSG) (T1R1/T1R3 [1]; Table 1, compound @ 1 uM): 9.53

Structure (SMILES): CC1CCCCC1NC(=O)c1ccnc(Cl)c1 (centres unmarked) [Compound E56, 2-chloro-N-(2-methylcyclohexyl)isonicotinamide]
- Umami EC50 ratio (T1R1/T1R3 [1]): 2.08

Structure (SMILES): CCCCC(CCCC)NC(=O)c1ccc2c(c1)OCO2 [Compound A41]
- Ec50 ratio (vs. MSG) (T1R1/T1R3 [1]; Table 1, compound @ 3 uM): 2.14

Structure (SMILES): CCCC(CCC)NC(=O)c1ccc(OC)c(F)c1 [Compound A74]
- Ec50 ratio (vs. MSG) (T1R1/T1R3 [1]; Table 1, compound @ 0.3 uM): 4.98

Structure (SMILES): COC(=O)[C@@H](CC(C)C)NC(=O)c1ccc2c(c1)OCO2 [Compound A45]
- pEC50 (T1R1/T1R3 [2]): 6.06

Structure (SMILES): COC(=O)[C@H]1CCCC[C@H]1NC(=O)c1ccc(OC)c(Cl)c1 [Compound A103]
- pEC50 (T1R1/T1R3 [2]): 5.87

Structure (SMILES): CCCC(CC)NC(=O)c1ccc2c(c1)CCO2 (centres unmarked) [Compound A53]
- pEC50 (T1R1/T1R3 [2]): 5.74
